Source: publication PMC9654711, “Neuroprotective Action of Coumarin Derivatives through Activation of TRKB-CREB-BDNF Pathway and Reduction of Caspase Activity in Neuronal Cells Expressing Pro-Aggregated Tau Protein” (International Journal of Molecular Sciences, 2022)

Columns and labels:
Assay type in all cases: cell-based, human
[1] = tested on: ΔK280 tauRD-DsRed SH-SY5Y folding reporter cells; assay: High-content analysis of ΔK280 tauRD-DsRed fluorescence and cell number (folding reporter); details: BDNF at 100 ng/mL, LMDS-1/2 at 10 μM; untreated = 100%; Figure 6A
Method: On day 1, ∆K280 tauRD-DsRed SH-SY5Y cells were seeded in a 96-well plate (3 × 10^4/well), with retinoic acid (10 µM; Sigma-Aldrich) added to induce neuronal differentiation. […] […] For ROS measurement, dichloro-dihydro-fluorescein diacetate (DCFH-DA, 10 µM; Invitrogen, Carlsbad, CA, USA) was added to the cells on day 8 and incubated at 37 °C for 30 min.

[2] = tested on: p-AKT (S473); assay: Immunoblot of p-AKT (S473)
Method: (§1) ∆K280 tauRD-DsRed SH-SY5Y cells in 6-well plates (5 × 10^5/well) were treated with retinoic acid (10 µM) on day 1, followed by LMDS-1 or -2 (10 µM) and doxycycline (2 µg/mL) addition on day 2 as described. ERK inhibitor U0126 or PI3K inhibitor wortmannin (10 μM) (LC Laboratories, Woburn, MA, USA) was added on day 6. On day 8, the cells were collected for BDNF, BCL2, BAX and total/phosphorylated TRKB, ERK, AKT, CREB protein analyses as described.
(§2) ∆K280 tauRD-DsRed SH-SY5Y cells were lysed in buffer containing 50 mM Tris-HCl (pH 8.0), 150 mM NaCl, 1 mM EDTA (pH 8.0), 1 mM EGTA (pH 8.0), 0.1% SDS, 0.5% sodium deoxycholate, 1% Triton X-100 and protease (Sigma-Aldrich)/phosphatase (Roche, Basel, Switzerland) inhibitor cocktails. After two sonications with an interval of 30 min on ice, cell lysates were collected by centrifugation at 14,000× g for 30 min at 4 °C. Protein concentrations were determined using a Bradford assay (Bio-Rad, Hercules, CA, USA). Protein samples (25 µg) were separated by 10–12% SDS-PAGE and transferred to polyvinylidene difluoride (PVDF) membranes (Sigma-Aldrich). After blocking for 2 h with 10% skimmed milk or 5% BSA in 0.1% Tween 20 in Tris-buffered saline (TBST), the membrane was incubated with primary antibody against BDNF (1:500; Santa Cruz, Santa Cruz, CA, USA), BCL2 (1:500; BioVision), BAX (1:500; BioVision), TRKB (1:1000; Cell Signaling, Danvers, MA, USA), p-TRKB (Y516) (1:1000; Cell Signaling), p-TRKB (Y817) (1:1000; Millipore, Billerica, MA, USA), ERK (1:1000; Cell Signaling), p-ERK (T202/Y204) (1:500; Cell Signaling), AKT (1:1000; Cell Signaling), p-AKT (S473) (1:1000; Cell Signaling), CREB (1:1000; Santa Cruz), p-CREB (S133) (1:1000; Millipore), JNK (1:1000; Cell Signaling), p-JNK (T183/Y185) (1:1000; Cell Signaling) or loading control glyceraldehyde-3-phosphate dehydrogenase (GAPDH) (1:1000; MDBio, Taipei, Taiwan). After three washes with TBST, the immune complexes were detected using horseradish peroxidase-conjugated goat anti-mouse or goat anti-rabbit secondary IgG antibody (1:5000, GeneTex, Irvine, CA, USA) and enhanced chemiluminescence substrates luminol and peroxide (Millipore). The primary and secondary antibodies used were diluted with TBST. The chemiluminescent detection was performed on ImageQuant™ LAS 4000mini (GE Healthcare).

[3] = tested on: CREB; assay: Immunoblot of CREB; details: 10 µM; induced untreated 83%
Method: as §1
(§3) ∆K280 tauRD-DsRed SH-SY5Y cells were lysed in buffer containing 50 mM Tris-HCl (pH 8.0), 150 mM NaCl, 1 mM EDTA (pH 8.0), 1 mM EGTA (pH 8.0), 0.1% SDS, 0.5% sodium deoxycholate, 1% Triton X-100 and protease (Sigma-Aldrich)/phosphatase (Roche, Basel, Switzerland) inhibitor cocktails. After two sonications with an interval of 30 min on ice, cell lysates were collected by centrifugation at 14,000× g for 30 min at 4 °C. Protein concentrations were determined using a Bradford assay (Bio-Rad, Hercules, CA, USA). Protein samples (25 µg) were separated by 10–12% SDS-PAGE and transferred to polyvinylidene difluoride (PVDF) membranes (Sigma-Aldrich). […] After three washes with TBST, the immune complexes were detected using horseradish peroxidase-conjugated goat anti-mouse or goat anti-rabbit secondary IgG antibody (1:5000, GeneTex, Irvine, CA, USA) and enhanced chemiluminescence substrates luminol and peroxide (Millipore). […]

[4] = tested on: p-TRKB (Y516 and Y817); assay: Immunoblot of p-TRKB (Y516 and Y817); details: for p-TRKB Y516 level / p-TRKB Y817 level: 10 µM; for p-TRKB Y516 level: induced untreated 67%; for p-TRKB Y817 level: induced untreated 74%; for p-TRKB (Y516/Y817) level: BDNF 100 ng/mL, LMDS-1/2 10 μM, induced untreated 77–83%, Figure 6B
Method: as §1, §2

[5] = tested on: p-JNK (T183/Y185); assay: Immunoblot of p-JNK (T183/Y185); details: 10 µM; versus 107% untreated; p > 0.05
Method: as §3

[6] = tested on: p-ERK (T202/Y204); assay: Immunoblot of p-ERK (T202/Y204)
Method: as §1, §2

[7] = tested on: BCL2; assay: Immunoblot of BCL2; details: 10 µM; induced untreated 73%
Method: as §1, §3

[8] = tested on: pro-BDNF (31 kDa); assay: Immunoblot of pro-BDNF; details: 10 µM; induced untreated 62%
Method: as §1, §3

Compound | DsRed fluorescence intensity [1] | p-AKT level ([2]; 10 µM plus wortmannin 10 μM) | p-AKT level ([2]; 10 µM, induced untreated 72%) | CREB level [3] | p-TRKB Y516 level [4] | p-TRKB Y817 level [4] | p-TRKB (Y516/Y817) level [4] | p-JNK (T183/Y185) expression [5] | p-ERK level ([6]; 10 µM plus U0126 10 μM) | p-ERK level ([6]; 10 µM, induced untreated 76%) | BCL2 level [7] | pro-BDNF level [8]
O=C(c1ccccc1)c1cc2ccc(O)cc2oc1=O [LMDS-2] | 111–112% | 62–64% | 96–100% | 98–101% | 92–93% | 103–105% | 96–104% | 93–108% | 65–66% | 101–102% | 111–114% | 94–99%
CCOc1ccc2cc(C(=O)c3ccccc3)c(=O)oc2c1 [LMDS-1] | 111–112% | 62–64% | 96–100% | 98–101% | 92–93% | 103–105% | 96–104% | 93–108% | 65–66% | 101–102% | 111–114% | 94–99%
